Measured values as given in patent US20060194800A1, “Pteridine derivatives as nitric oxide synthase activators” (University of Strathclyde, priority 2005, published 2006).

Legend:
[1] = target: T1, iNOS (Mus musculus, UniProt P29477); assay: Macrophage assay (iNOS), macrophages depleted of tetrahydrobiopterin by DAHP; format: cell-based
T1 construct: stimulated macrophages that produce iNOS; endogenous in cells; host or cells: primary mouse macrophages (from femur), LPS-stimulated, DAHP-treated

[2] = tested on: rat lungs; assay: Calcium ionophore-induced pulmonary vasodilation in perfused lungs of rats treated with WSG1002; format: in vivo; conditions: 14.1 mg/kg/day s.c.
Procedure: Rats were maintained in a chamber containing atmospheric air at 550 mbar for 14 days.
A group of normotensive and a group of pulmonary hypertensive rats received daily subcutaneous injections of WSG1002 in a dose of 14.1 mg/kg/day during the time that they were in the hypoxic chamber. Other groups of normotensive and pulmonary hypertensive rats had no drugs and are used as control comparison groups. These studies used lungs from the four groups of rats (1) pulmonary hypertensive and treated with WSG1002, (2) normotensive and treated with WSG1002, (3) pulmonary hypertensive and not treated with WSG1002 (4) normotensive and not treated with WSG1002.
The rats lungs were perfused at constant flow through the pulmonary artery with measurement of perfusion pressure and maintained at 37° C. […]
The lungs were precontracted with the thromboxane A2 mimetic, 9,11-dideoxy-11α,9α-epoxymethanoprostaglandin F2α (U46619, 3×10^−5 M) given as a bolus dose via an injection port. […] Following return to 20% O2, the lungs were precontracted again with a bolus dose of U46619 and relaxation responses to the endothelium-dependent vasorelaxant, calcium ionophore were measured by adding it in increasing doses to the perfusate. The data was plotted as concentration-response curves from which IC50 values were calculated using Biograph program by fitting the curves to the Hill equation y=RMax/(1+(x/EC50)ˆP).

[3] = target: T2, eNOS (Sus scrofa, UniProt Q28969); assay: Endothelial cell assay, nitric oxide (NO2+NO3) production; format: cell-based, porcine; conditions: 30 μM in DMSO, seven days, DAHP-depleted endothelial cells
T2 construct: endothelial cells that produce eNOS; endogenous in cells; host or cells: primary porcine pulmonary artery endothelial cells
T2 sequence (Q28969 2-1205 limits assumed): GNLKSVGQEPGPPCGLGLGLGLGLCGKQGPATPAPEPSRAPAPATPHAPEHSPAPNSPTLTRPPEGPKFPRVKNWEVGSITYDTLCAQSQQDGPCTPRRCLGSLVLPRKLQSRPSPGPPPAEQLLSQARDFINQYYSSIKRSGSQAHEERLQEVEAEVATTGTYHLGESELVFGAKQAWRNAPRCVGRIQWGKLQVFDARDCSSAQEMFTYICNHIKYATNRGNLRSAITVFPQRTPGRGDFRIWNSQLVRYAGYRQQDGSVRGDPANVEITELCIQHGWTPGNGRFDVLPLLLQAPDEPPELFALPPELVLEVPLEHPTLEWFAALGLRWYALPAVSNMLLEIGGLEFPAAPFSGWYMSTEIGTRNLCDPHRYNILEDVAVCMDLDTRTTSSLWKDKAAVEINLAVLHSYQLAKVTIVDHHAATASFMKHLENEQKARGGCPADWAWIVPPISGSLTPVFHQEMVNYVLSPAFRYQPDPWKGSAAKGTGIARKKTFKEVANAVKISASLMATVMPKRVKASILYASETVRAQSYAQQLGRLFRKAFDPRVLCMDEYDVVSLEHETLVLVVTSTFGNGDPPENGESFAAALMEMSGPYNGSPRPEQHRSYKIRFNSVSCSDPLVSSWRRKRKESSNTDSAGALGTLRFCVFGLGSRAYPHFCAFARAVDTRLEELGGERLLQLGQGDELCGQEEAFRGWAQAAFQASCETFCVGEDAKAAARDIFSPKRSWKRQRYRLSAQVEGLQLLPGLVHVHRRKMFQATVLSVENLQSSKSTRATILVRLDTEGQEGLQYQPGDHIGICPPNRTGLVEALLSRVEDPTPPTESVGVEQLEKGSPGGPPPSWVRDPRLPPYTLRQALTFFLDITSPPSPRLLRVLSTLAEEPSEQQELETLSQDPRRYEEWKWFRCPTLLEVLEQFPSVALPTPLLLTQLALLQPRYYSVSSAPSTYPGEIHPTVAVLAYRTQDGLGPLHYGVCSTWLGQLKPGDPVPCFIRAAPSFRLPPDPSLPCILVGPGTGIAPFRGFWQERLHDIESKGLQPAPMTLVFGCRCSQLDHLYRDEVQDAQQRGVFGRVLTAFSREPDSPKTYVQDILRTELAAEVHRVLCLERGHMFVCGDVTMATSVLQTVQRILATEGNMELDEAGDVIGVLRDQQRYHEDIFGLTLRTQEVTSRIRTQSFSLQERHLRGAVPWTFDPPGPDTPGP
Procedure: The arterial assay is sensitive but slow to perform, and therefore a wider range of compounds was investigated in whole cell preparations. Tests have been carried out using endothelial cells that produce eNOS and stimulated macrophages that produce iNOS. Endothelial cells were isolated from porcine pulmonary artery and grown to confluency in T75 flasks. Subsequently, the cells were seeded into 6-well plates. At confluency, the medium (1 ml/well) was changed and the relevant treatment introduced to all wells in each plate (one treatment/plate). The cells were incubated for a further 7-day period and the experiment was terminated. The media from the wells of respective plates was combined (˜6 mls) and evaporated to approximately 500 μl (˜10-fold). A 50 μl aliquot was removed and any NO3 was converted to NO2 using the NO3 conversion method (Calbiochem Cat No 482702). These treated samples were then assayed using the Greiss reaction as described above giving the content of the combination of (NO2+NO3). WSG1002, as a representative compound, was incubated with a preparation of endothelial cells over seven days in order to accumulate sufficient nitric oxide for assay as described above. Controls included vehicle (0.5% DMSO) and L-NAME (an established NOS inhibitor). WSG1002 caused a doubling of nitric oxide compared with vehicle control.

T1 sequence (P29477 whole entry): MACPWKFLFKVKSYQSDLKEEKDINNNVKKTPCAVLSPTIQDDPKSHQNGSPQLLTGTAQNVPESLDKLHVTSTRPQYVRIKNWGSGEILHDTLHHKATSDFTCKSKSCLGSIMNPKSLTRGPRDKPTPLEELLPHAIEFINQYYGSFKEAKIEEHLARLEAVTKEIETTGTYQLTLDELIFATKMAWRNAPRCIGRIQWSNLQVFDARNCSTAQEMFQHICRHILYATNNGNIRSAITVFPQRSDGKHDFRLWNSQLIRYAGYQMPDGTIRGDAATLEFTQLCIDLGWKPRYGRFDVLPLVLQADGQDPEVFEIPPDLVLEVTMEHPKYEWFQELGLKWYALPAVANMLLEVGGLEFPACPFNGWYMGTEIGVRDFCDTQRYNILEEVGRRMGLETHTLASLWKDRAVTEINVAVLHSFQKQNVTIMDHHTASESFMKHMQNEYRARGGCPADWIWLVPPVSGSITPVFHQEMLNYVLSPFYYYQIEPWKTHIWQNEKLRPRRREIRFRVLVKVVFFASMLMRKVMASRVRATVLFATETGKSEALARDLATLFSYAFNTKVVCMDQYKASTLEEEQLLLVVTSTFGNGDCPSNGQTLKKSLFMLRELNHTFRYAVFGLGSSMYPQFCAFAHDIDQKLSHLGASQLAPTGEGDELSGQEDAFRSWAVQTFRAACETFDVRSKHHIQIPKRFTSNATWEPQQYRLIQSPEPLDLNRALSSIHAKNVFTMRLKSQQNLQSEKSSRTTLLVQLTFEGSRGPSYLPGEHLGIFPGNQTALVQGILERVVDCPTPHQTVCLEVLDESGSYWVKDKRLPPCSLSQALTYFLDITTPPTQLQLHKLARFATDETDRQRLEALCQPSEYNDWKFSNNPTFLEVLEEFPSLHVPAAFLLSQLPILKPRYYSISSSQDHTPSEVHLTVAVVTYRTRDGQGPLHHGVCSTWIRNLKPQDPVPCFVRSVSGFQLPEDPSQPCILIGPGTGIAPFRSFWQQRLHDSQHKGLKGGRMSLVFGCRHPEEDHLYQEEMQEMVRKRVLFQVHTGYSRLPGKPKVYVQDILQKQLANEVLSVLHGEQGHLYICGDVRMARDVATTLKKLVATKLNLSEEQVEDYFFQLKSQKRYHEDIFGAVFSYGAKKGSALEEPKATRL

activation at 1 µM ([1]; 72 h, tested at 1 microM in macrophages, P = promotes NOS activity, read-out: iNOS effect *H155): 20 to 50% | stimulation of nitric oxide synthesis vs controls ([1]; DAHP 10^-2 M depleted macrophages, 72 hrs): increases were statistically significant | IC50 for calcium ionophore relaxation ([2]; normotensive rats, untreated 1.5 μM): 1.1 µM | IC50 for calcium ionophore relaxation ([2]; pulmonary hypertensive (hypoxic) rats, untreated 1.7 μM): 1.2 µM | nitric oxide production compared with vehicle control [3]: doubling
SMILES: CC(=O)C1=Nc2c(nc(N)[nH]c2=O)NC1(C)C [wsg1002, 6-Acetyl-2-amino-7,7-dimethyl-7,8-dihydro-3H-pteridin-4-one]
